Read-outs that look alike come from different tables or passages of the source.
Key:
[1] = rat, in vivo
Method: (§1) Blood was taken from tail vessels at the time points 0, 10, 20, 40, 60, 90, 120 and 180 min after dosing.

[2] = in vivo; conditions: Sprague Dawley, rat, sc, 0.1 mg/kg
Method: as §1

[3] = pH of dissolved solid powder mixtures (Example 17); format: physicochemical
[4] = rat, in vivo; remark: listed apart in the source
Method: (§2) Teriparatide (PTH1-34) was dosed subcutaneously in volume of 1 ml/kg (final concentration 0.024 mg/ml teriparatide) to anaesthetized rats. […] Blood was taken from tail vessels at the time points 0, 10, 20, 40, 60, 90, 120 and 180 min after dosing. The teriparatide plasma concentrations were determined using commercial pTH (1-34) human ELISA kit (Biovendor, EU, cat. number RS-1163.0001).

[5] = in vivo; conditions: Sprague Dawley, rat, sc
Method: as §2

[6] = study comparing aprotinin with aminocaproic acid; cited from earlier work

CCNC(=O)[C@@H]1CCCN1C(=O)[C@H](CCCNC(=N)N)NC(=O)[C@H](CC(C)C)NC(=O)[C@@H](CC(C)C)NC(=O)[C@H](Cc1ccc(O)cc1)NC(=O)[C@H](CO)NC(=O)[C@H](Cc1c[nH]c2ccccc12)NC(=O)[C@H](Cc1c[nH]cn1)NC(=O)[C@@H]1CCC(=O)N1 [Leuprolide]
F [1]: 100 ± 19.5% | AUC(0-t) [2]: 130 ng·h/mL | Cmax [2]: 78.9 ± 14.7 ng/mL | Tmax [2]: 20 to 40 min

CC[C@H](C)[C@H](NC(=O)[C@H](CCC(=O)O)NC(=O)[C@H](CO)NC(=O)[C@@H](NC(=O)[C@@H](N)CO)C(C)C)C(=O)N[C@@H](CCC(N)=O)C(=O)N[C@@H](CC(C)C)C(=O)N[C@@H](CCSC)C(=O)N[C@@H](Cc1cnc[nH]1)C(=O)N[C@@H](CC(N)=O)C(=O)N[C@@H](CC(C)C)C(=O)NCC(=O)N[C@@H](CCCCN)C(=O)N[C@@H](Cc1cnc[nH]1)C(=O)N[C@@H](CC(C)C)C(=O)N[C@@H](CC(N)=O)C(=O)N[C@@H](CO)C(=O)N[C@@H](CCSC)C(=O)N[C@@H](CCC(=O)O)C(=O)N[C@@H](CCCN=C(N)N)C(=O)N[C@H](C(=O)N[C@@H](CCC(=O)O)C(=O)N[C@@H](Cc1c[nH]c2ccccc12)C(=O)N[C@@H](CC(C)C)C(=O)N[C@@H](CCCN=C(N)N)C(=O)N[C@@H](CCCCN)C(=O)N[C@@H](CCCCN)C(=O)N[C@@H](CC(C)C)C(=O)N[C@@H](CCC(N)=O)C(=O)N[C@@H](CC(=O)O)C(=O)N[C@H](C(=O)N[C@@H](Cc1cnc[nH]1)C(=O)N[C@@H](CC(N)=O)C(=O)N[C@@H](Cc1ccccc1)C(=O)O)C(C)C)C(C)C [PTH(1-34), Teriparatide]
Dissolution pH in 5 ml Aqua purificata ([3]; CuSO4 10 mg, lauroyl carnitine 10 mg, MCC 50 mg, no buffer): 3.6 | Dissolution pH in 5 ml Aqua purificata ([3]; CuSO4 10 mg, lauroyl carnitine 10 mg, gelatin capsule 50 mg, no buffer): 4.4 | Dissolution pH in 5 ml Aqua purificata ([3]; CuSO4 10 mg, lauroyl carnitine 10 mg, lactose 50 mg, 10 mg TRIS): 6.5 | Dissolution pH in 5 ml Aqua purificata ([3]; CuSO4 10 mg, lauroyl carnitine 10 mg, lactose 50 mg, buffer cell empty): 3.2 | Dissolution pH in 5 ml Aqua purificata ([3]; CuSO4 10 mg, sucrose laurate 10 mg, lactose 50 mg, no buffer): 5.0 | Dissolution pH in 5 ml Aqua purificata ([3]; ZnCl2 10 mg, lauroyl carnitine 10 mg, MCC 50 mg, 5 mg TRIS): 6.3 | Dissolution pH in 5 ml Aqua purificata ([3]; ZnCl2 10 mg, lauroyl carnitine 10 mg, MCC 50 mg, no buffer): 3.5 | Dissolution pH in 5 ml Aqua purificata ([3]; ZnCl2 10 mg, lauroyl carnitine 10 mg, gelatin capsule 50 mg, 10 mg TRIS): 6.8 | Dissolution pH in 5 ml Aqua purificata ([3]; ZnCl2 10 mg, lauroyl carnitine 10 mg, gelatin capsule 50 mg, no buffer): 4.3 | Dissolution pH in 5 ml Aqua purificata ([3]; ZnCl2 10 mg, lauroyl carnitine 10 mg, lactose 50 mg, 10 mg TRIS): 7.1 | Dissolution pH in 5 ml Aqua purificata ([3]; ZnCl2 10 mg, lauroyl carnitine 10 mg, lactose 50 mg, buffer cell empty): 2.9 | Dissolution pH in 5 ml Aqua purificata ([3]; ZnSO4 10 mg, lauroyl carnitine 10 mg, lactose 50 mg, 10 mg TRIS): 7.5 | Dissolution pH in 5 ml Aqua purificata ([3]; ZnSO4 10 mg, lauroyl carnitine 10 mg, lactose 50 mg, no buffer): 3.1 | Dissolution pH in 5 ml Aqua purificata ([3]; ZnSO4 10 mg, sucrose laurate 10 mg, lactose 50 mg, no buffer): 6.5 | F [4]: 100 ± 23% | plasma half-life of PTH(1-34) compared to s.c. administration, in words [4]: increased plasma half-life | Tmax [5]: 10 min | half-life [5]: 44 ± 8 min

Aprotinin
increase of mortality [6]: 64%

From patent US20170304195A1, “PHARMACEUTICAL FORMULATIONS FOR THE ORAL DELIVERY OF PEPTIDE OR PROTEIN DRUGS” (Cyprumed GmbH, priority 2014, published 2017)
